Results reported in patent publication US10197583B2, “Hydroxycholesterol immunoassay” (ENZO LIFE SCIENCES, INC. C/O ENZO BIOCHEM, INC., priority 2010, dated 2019).

Columns and labels:
[1] = test system: rabbit antisera to 24S-hydroxycholesterol (Day 77, rabbit #71); assay: Cross-reactivity in competitive 24HC enzyme immunoassay, antiserum of rabbit #71; type: binding; conditions: Table 3; antiserum Day 77, rabbit #71
Experimental: (§1) 24HC Enzyme Immunoassay Protocol
(§2) 1. Known concentrations of 24HC were prepared in 100 mM phosphate, 150 mM NaCl, 1% BSA, pH 7.2 assay buffer containing biotinylated […] (described above) and added to wells of a 96 well microtiter plate that were coated with a goat anti-rabbit IgG antibody. Rabbit polyclonal antibody to 24HC was diluted to a limiting concentration in 100 mM Tris, 150 mM NaCl, 1% BSA buffer and 100 μL was added to each well. The plate was incubated at room temperature for 1 hour with orbital shaking. During this incubation the anti-24HC antibody binds to the goat anti-rabbit IgG antibody on the plate. Also, the 24HC standard competes with the biotinylated 24HC for anti-24HC antibody binding sites. Thus, with more 24HC standard, less biotinylated 24HC binds to the antibody binding sites on the plate.
(§3) 2. Following this incubation, the plate was washed 4 times with 300 μL of 50 mM Tris, 100 mM NaCl, 0.05% Tween-20 buffer. After washing, bound 24HC or bound biotinylated 24HC is bound to the binding sites on the anti-24HC antibodies.
(§4) 3. Streptavidin conjugated to HRP (200 μL), diluted in 100 mM phosphate, 150 mM NaCl, 1% BSA, pH 7.2 assay buffer, was then added to each well to allow detection of the biotinylated 24HC. The plate was then incubated at room temperature for 30 minutes.
(§5) 4. The plate was then washed 4 times with 300 μL of 50 mM Tris, 100 mM NaCl, 0.05% Tween-20 buffer to remove excess streptavidin-HRP conjugate. TMB substrate solution (200 μL) is added to each well. The plates were incubated at room temperature for 30 min.
(§6) 5. After color development, 50 μL of 1N HCl stop solution is added to each well to stop the substrate reaction. The resulting yellow color was read at 450 nm. […]. The intensity of yellow color is inversely proportional to the concentration of 24HC that was added to the well.
(§7) Cross-reactivities of antisera taken from another rabbit at Day 77 (rabbit #71), subjected to the same immunization protocol, as well as a repeat of the rabbit #72 antisera, were also determined.

[2] = test system: rabbit antisera to 24S-hydroxycholesterol (Day 77 bleed, rabbit #72); assay: Cross-reactivity in competitive 24HC enzyme immunoassay, antiserum of rabbit #72; type: binding; conditions: for Bleed #72 % Cross reactivity: Table 3, repeat of the rabbit #72 antisera; for % Cross reactivity: Table 2, antiserum Day 77 bleed, rabbit #72, relative to 24HC
Experimental: as §1, §2, §3, §4, §5, §6
The multiple regression line shown therein has an R^2 of 0.996. The detectable range for 24HC for this assay is as shown is 1.56-100 ng/mL. The total assay time is 2 h.
Cross-reactivity of the antisera tested above (Day 77 bleed, rabbit #72) to the following structurally similar molecules was determined:
as §7

Row | SMILES | Bleed #71 % Cross reactivity [1] [%] | Bleed #72 % Cross reactivity [2] [%] | % Cross reactivity [2] [%]
1 | C[C@H](CCCC(C)(C)O)[C@H]1CC[C@H]2[C@@H]3CC=C4C[C@@H](O)CC[C@]4(C)[C@H]3CC[C@]12C [25-Hydroxycholesterol] | 0.19 | 0.725 | –
2 | CC(C)CCC[C@@H](C)[C@H]1CC[C@H]2[C@@H]3CC=C4C[C@@H](O)CC[C@]4(C)[C@H]3CC[C@]12C [Cholesterol] | 0.002 | 0.003 | <0.001
3 | CC(C)CC[C@@H](O)[C@@H](C)[C@H]1CC[C@H]2[C@@H]3CC=C4CC(O)CC[C@]4(C)[C@H]3CC[C@]12C (stereo in doubt) [22-Hydroxycholesterol] | 0.020 | 0.11 | 0.15
4 | C[C@]12CC[C@H](O)CC1=CC[C@@H]1[C@@H]2CC[C@]2(C)C(=O)CC[C@@H]12 [DHEA] | 0.015 | 0.018 | 0.05
5 | C[C@@H](CO)CCC[C@@H](C)[C@H]1CC[C@H]2[C@@H]3CC=C4C[C@@H](O)CC[C@]4(C)[C@H]3CC[C@]12C [27-Hydroxycholesterol] | 0.022 | <0.001 | –
